The text below walks through data of patent publication US11090319B2, “Therapeutic uses of pharmaceutical compositions comprising cyclic boronic acid ester derivatives” (Melinta Subsidiary Corp., priority 2010, dated 2021).

Holding throughout (assay): biochemical
Holding throughout (assay type): biochemical

The target of experiment [1] is various β-lactamases (bacterial lysates) (Pseudomonas aeruginosa, UniProt P14489). Particulars: AZT IC50 KP1007 OXA-10.
Experiment [2] has as its target various β-lactamases (bacterial lysates) (Escherichia coli, UniProt A0A649V088). Particulars: read-out: AZT IC50 KP1005 CTX-M-14.
In experiment [3] the target is various β-lactamases (bacterial lysates) (Klebsiella pneumoniae, UniProt Q9F663). Particulars: aztreonam cleavage.
Experiment [4] addresses various β-lactamases (bacterial lysates) (Salmonella typhimurium, UniProt P0A1V8). Particulars: AZT IC50 KPX1001 OXA-2.
Experiment [5] concerns the target various β-lactamases (bacterial lysates) (Klebsiella pneumoniae, UniProt Q9F663, H272Y).
Experiment [6] addresses various β-lactamases (bacterial lysates) (Escherichia coli, UniProt A0A5R8T042). Particulars: read-out: AZT IC50 KP1009 CTX-M-15.
[7] abbreviates: lysate KP1004 KPC-2, read-out: AZT IC50 KP1004 KPC-2 (converted).
Where [8] appears, read: lysate KP1008 KPC-2, read-out: AZT IC50 KP1008 KPC-2.

Read-outs that look alike come from different tables or passages of the source. Some results are limits rather than exact numbers.

various β-lactamases (bacterial lysates) (Salmonella typhimurium, UniProt P0A1V8), sequence (P0A1V8 22-275): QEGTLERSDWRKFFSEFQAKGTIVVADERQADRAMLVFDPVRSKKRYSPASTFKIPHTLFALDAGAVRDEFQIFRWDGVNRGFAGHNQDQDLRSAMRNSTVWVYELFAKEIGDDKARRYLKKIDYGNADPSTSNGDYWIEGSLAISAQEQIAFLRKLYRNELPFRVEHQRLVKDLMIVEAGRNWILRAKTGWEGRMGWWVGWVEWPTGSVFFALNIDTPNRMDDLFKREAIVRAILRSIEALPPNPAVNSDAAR
various β-lactamases (bacterial lysates) (Pseudomonas aeruginosa, UniProt P14489), sequence (P14489 20-266): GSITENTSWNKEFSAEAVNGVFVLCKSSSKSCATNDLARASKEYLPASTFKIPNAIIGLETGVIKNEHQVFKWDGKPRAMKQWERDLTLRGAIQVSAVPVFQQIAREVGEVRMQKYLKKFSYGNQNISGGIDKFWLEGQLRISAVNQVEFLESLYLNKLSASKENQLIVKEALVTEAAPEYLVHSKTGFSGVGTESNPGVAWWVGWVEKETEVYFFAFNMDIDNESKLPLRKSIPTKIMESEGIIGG
various β-lactamases (bacterial lysates) (Klebsiella pneumoniae, UniProt Q9F663, H272Y), sequence (Q9F663 whole entry H272Y, looked up): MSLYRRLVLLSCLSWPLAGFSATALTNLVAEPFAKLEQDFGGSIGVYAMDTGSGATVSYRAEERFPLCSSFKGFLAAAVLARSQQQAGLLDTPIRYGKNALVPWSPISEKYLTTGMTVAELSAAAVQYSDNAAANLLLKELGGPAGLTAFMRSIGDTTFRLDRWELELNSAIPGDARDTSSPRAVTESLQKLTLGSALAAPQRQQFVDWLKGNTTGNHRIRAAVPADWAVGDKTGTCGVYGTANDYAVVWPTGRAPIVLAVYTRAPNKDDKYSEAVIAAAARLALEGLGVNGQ
various β-lactamases (bacterial lysates) (Klebsiella pneumoniae, UniProt Q9F663), sequence (Q9F663 whole entry, looked up): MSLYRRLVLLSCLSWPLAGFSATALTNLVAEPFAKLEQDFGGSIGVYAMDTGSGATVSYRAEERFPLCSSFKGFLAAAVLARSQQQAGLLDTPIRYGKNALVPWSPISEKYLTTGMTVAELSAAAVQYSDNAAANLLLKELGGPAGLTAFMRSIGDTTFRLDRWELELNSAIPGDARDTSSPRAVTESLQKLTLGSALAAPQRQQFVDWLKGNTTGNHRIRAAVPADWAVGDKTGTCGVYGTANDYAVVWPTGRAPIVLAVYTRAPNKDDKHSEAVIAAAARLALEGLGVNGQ
various β-lactamases (bacterial lysates) (Escherichia coli, UniProt A0A5R8T042), sequence (A0A5R8T042 29-291): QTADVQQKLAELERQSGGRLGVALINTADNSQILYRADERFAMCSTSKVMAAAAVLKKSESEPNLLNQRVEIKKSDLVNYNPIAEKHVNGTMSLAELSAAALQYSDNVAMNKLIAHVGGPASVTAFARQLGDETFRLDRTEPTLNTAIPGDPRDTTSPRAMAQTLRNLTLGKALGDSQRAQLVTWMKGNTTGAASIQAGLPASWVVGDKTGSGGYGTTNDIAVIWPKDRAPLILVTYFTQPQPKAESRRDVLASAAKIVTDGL
various β-lactamases (bacterial lysates) (Escherichia coli, UniProt A0A649V088), sequence (A0A649V088 29-291): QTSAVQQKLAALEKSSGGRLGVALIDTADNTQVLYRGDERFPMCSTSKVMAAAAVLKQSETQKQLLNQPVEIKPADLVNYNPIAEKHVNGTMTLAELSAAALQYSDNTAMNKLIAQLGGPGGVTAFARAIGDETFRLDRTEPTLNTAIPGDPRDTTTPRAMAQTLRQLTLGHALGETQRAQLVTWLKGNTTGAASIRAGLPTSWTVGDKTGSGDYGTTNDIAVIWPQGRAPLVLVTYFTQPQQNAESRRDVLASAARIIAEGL

What is called IC50 is the concentration at which inhibition is half-maximal. Regarding `N[C@H](C(=O)N[C@H]1CC[C@@H](CC(=O)O)OB1O)c1ccccc1` [Compound 33, 2-((3R,6S)-3-((S)-2-amino-2-phenylacetamido)-2-hydroxy-1,2-oxaborinan-6-yl)acetic acid], the IC50 in experiment [1] is greater than 6.53 µM; in experiment [2], less than 1.63 µM; in experiment [3] (setting [7]) it was 1.63 to 6.53 µM; in experiment [3] (setting [8]), 1.63 to 6.53 µM; in experiment [4], 1.63 to 6.53 µM; in experiment [5] it was less than 1.63 µM. In experiment [6], the IC50 is greater than 6.53 µM.

For `NCCC(=O)N[C@H]1CC[C@@H](CC(=O)O)OB1O` [Compound 34, 2-((3R,6S)-3-(3-aminopropanamido)-2-hydroxy-1,2-oxaborinan-6-yl)acetic acid], the IC50 in experiment [1] was greater than 8.19 µM; in experiment [2], greater than 8.19 µM; in experiment [3] (setting [7]) it was 2.05 to 8.19 µM; in experiment [3] (setting [8]) it was 2.05 to 8.19 µM; in experiment [4] it was greater than 8.19 µM; in experiment [5], less than 2.05 µM. Besides, the IC50 in experiment [6] is greater than 8.19 µM.

For the compound `N[C@@H](CCC(=O)N[C@H]1CC[C@@H](CC(=O)O)OB1O)C(=O)O` [Compound 35, (S)-2-amino-5-((3R,6S)-6-(carboxymethyl)-2-hydroxy-1,2-oxaborinan-3-ylamino)-5-oxopentanoic acid], the IC50 in experiment [1] was greater than 6.62 µM; in experiment [2], greater than 6.62 µM; in experiment [3] (setting [7]), greater than 6.62 µM; in experiment [3] (setting [8]), greater than 6.62 µM; in experiment [4] it was greater than 6.62 µM; in experiment [5], less than 1.66 µM. Moreover, the IC50 in experiment [6] is greater than 6.62 µM.

As to `O=C(O)C[C@@H]1CC[C@H](NC(=O)CCc2ccccc2)B(O)O1` [Compound 38, 2-((3R,6S)-2-hydroxy-3-(3-phenylpropanamido)-1,2-oxaborinan-6-yl)acetic acid], the half-inhibitory concentration (IC50) in experiment [1] was greater than 6.55 µM; in experiment [2], less than 1.64 µM; in experiment [3] (setting [7]), less than 1.64 µM; in experiment [3] (setting [8]), less than 1.64 µM; in experiment [4] it was 1.64 to 6.55 µM; in experiment [5], less than 1.64 µM. In experiment [6], the IC50 lay within 1.64 to 6.55 µM.

Take `CSCCC(N)C(=O)N[C@H]1CC[C@@H](CC(=O)O)OB1O` (stereo partly drawn) [Compound 41, 2-((3R,6S)-3-(2-amino-4-(methylthio)butanamido)-2-hydroxy-1,2-oxaborinan-6-yl)acetic acid]: the IC50 in experiment [1] is greater than 6.58 µM; in experiment [2] it was greater than 6.58 µM; in experiment [3] (setting [7]), less than 1.64 µM; in experiment [3] (setting [8]), less than 1.64 µM; in experiment [4], greater than 6.58 µM; in experiment [5], less than 1.64 µM. The IC50 in experiment [6] is greater than 6.58 µM.

Consider `NC(Cc1cccnc1)C(=O)N[C@H]1CC[C@@H](CC(=O)O)OB1O` (stereo partly drawn) [Compound 42, 2-((3R,6S)-3-(2-amino-3-(pyridin-3-yl)propanamido)-2-hydroxy-1,2-oxaborinan-6-yl)acetic acid], for which the IC50 in experiment [1] was greater than 6.23 µM; in experiment [2], greater than 6.23 µM; in experiment [3] (setting [7]), less than 1.56 µM; in experiment [3] (setting [8]) it was less than 1.56 µM; in experiment [4], greater than 6.23 µM; in experiment [5] it was less than 1.56 µM. Moreover, the IC50 in experiment [6] was greater than 6.23 µM.

`O=C(O)C[C@@H]1CC[C@H](NC(=O)Cc2cccnc2)B(O)O1` [Compound 43, 2-((3R,6S)-2-hydroxy-3-(2-(pyridin-3-yl)acetamido)-1,2-oxaborinan-6-yl)acetic acid]: the half-maximal inhibitory concentration (IC50) in experiment [1] is greater than 6.85 µM; in experiment [2], 1.71 to 6.85 µM; in experiment [3] (setting [7]), less than 1.71 µM; in experiment [3] (setting [8]) it was less than 1.71 µM; in experiment [4], 1.71 to 6.85 µM; in experiment [5], less than 1.71 µM. Also, the IC50 in experiment [6] is greater than 6.85 µM.

On to `O=C(O)C[C@@H]1CC[C@H](NC(=O)[C@@H]2CCCCN2)B(O)O1` [Compound 45, 2-((3R,6S)-2-hydroxy-3-((S)-piperidine-2-carboxamido)-1,2-oxaborinan-6-yl)acetic acid], for which the IC50 was greater than 7.04 µM in experiment [1]; greater than 7.04 µM in experiment [2]; 1.76 to 7.04 µM in experiment [3] (setting [7]); 1.76 to 7.04 µM in experiment [3] (setting [8]); greater than 7.04 µM in experiment [4]; less than 1.76 µM in experiment [5]. Also, the IC50 in experiment [6] is greater than 7.04 µM.

`O=C(O)C[C@@H]1CC[C@H](NC(=O)[C@H]2Cc3ccccc3CN2)B(O)O1` [Compound 46, 2-((3R,6S)-2-hydroxy-3-((R)-1,2,3,4-tetrahydroisoquinoline-3-carboxamido)-1,2-oxaborinan-6-yl)acetic acid]: the IC50 in experiment [1] was greater than 6.02 µM; in experiment [2], greater than 6.02 µM; in experiment [3] (setting [7]) it was less than 1.51 µM; in experiment [3] (setting [8]) it was less than 1.51 µM; in experiment [4], greater than 6.02 µM; in experiment [5] it was less than 1.51 µM. The IC50 in experiment [6] is greater than 6.02 µM.

As for `N=C(N)NCCC[C@@H](N)C(=O)N[C@H]1CC[C@@H](CC(=O)O)OB1O` [Compound 47, 2-((3R,6S)-3-((R)-2-amino-5-guanidinopentanamido)-2-hydroxy-1,2-oxaborinan-6-yl)acetic acid], the IC50 was greater than 6.08 µM in experiment [1]; greater than 6.08 µM in experiment [2]; 1.52 to 6.08 µM in experiment [3] (setting [7]); 1.52 to 6.08 µM in experiment [3] (setting [8]); greater than 6.08 µM in experiment [4]; less than 1.52 µM in experiment [5]. Further, in experiment [6], the IC50 is greater than 6.08 µM.

Turning to `O=C(O)C[C@@H]1CC[C@H](NC(=O)Cc2ccncc2)B(O)O1` [Compound 49, 2-((3R,6S)-2-hydroxy-3-(2-(pyridin-4-yl)acetamido)-1,2-oxaborinan-6-yl)acetic acid], the IC50 in experiment [1] is greater than 6.85 µM; in experiment [2], 1.71 to 6.85 µM; in experiment [3] (setting [7]), less than 1.71 µM; in experiment [3] (setting [8]), less than 1.71 µM; in experiment [4], 1.71 to 6.85 µM; in experiment [5], less than 1.71 µM. Also, the IC50 in experiment [6] was greater than 6.85 µM.

`N[C@H]1CC[C@@H](CC(=O)N[C@H]2CC[C@@H](CC(=O)O)OB2O)CC1` [Compound 50, 2-((3R,6S)-3-(2-(4-aminocyclohexyl)acetamido)-2-hydroxy-1,2-oxaborinan-6-yl)acetic acid]: the IC50 in experiment [1] was greater than 6.41 µM; in experiment [2], 1.6 to 6.41 µM; in experiment [3] (setting [7]) it was less than 1.6 µM; in experiment [3] (setting [8]) it was less than 1.6 µM; in experiment [4] it was greater than 6.41 µM; in experiment [5] it was less than 1.6 µM. In addition, in experiment [6], the IC50 is greater than 6.41 µM.

`O=C(O)C[C@@H]1CC[C@H](NC(=O)C[C@H]2CCCCN2)B(O)O1` [Compound 52, 2-((3R,6S)-2-hydroxy-3-(2-((R)-piperidin-2-yl)acetamido)-1,2-oxaborinan-6-yl)acetic acid]: the IC50 was greater than 6.71 µM in experiment [1]; greater than 6.71 µM in experiment [2]; less than 1.68 µM in experiment [3] (setting [7]); 1.68 to 6.71 µM in experiment [3] (setting [8]); greater than 6.71 µM in experiment [4]; 1.68 to 6.71 µM in experiment [5]. In experiment [6], the IC50 was greater than 6.71 µM.

For the compound `O=C(O)C[C@@H]1CC[C@H](NC(=O)C[C@@H]2CCCCN2)B(O)O1` [Compound 53, 2-((3R,6S)-2-hydroxy-3-(2-((S)-piperidin-2-yl)acetamido)-1,2-oxaborinan-6-yl)acetic acid], the IC50 in experiment [1] was greater than 6.71 µM; in experiment [2], greater than 6.71 µM; in experiment [3] (setting [7]), less than 1.68 µM; in experiment [3] (setting [8]), 1.68 to 6.71 µM; in experiment [4], 1.68 to 6.71 µM; in experiment [5] it was 1.68 to 6.71 µM. Moreover, the IC50 in experiment [6] is greater than 6.71 µM.

On to `Cc1nc2ccccc2n1CCC(=O)N[C@H]1CC[C@@H](CC(=O)O)OB1O` [Compound 55, 2-((3R,6S)-2-hydroxy-3-(3-(2-methyl-1H-benzo[d]imidazol-1-yl)propanamido)-1,2-oxaborinan-6-yl)acetic acid], for which the IC50 in experiment [1] is greater than 5.57 µM; in experiment [2] it was 1.39 to 5.57 µM; in experiment [3] (setting [7]), less than 1.39 µM; in experiment [3] (setting [8]) it was less than 1.39 µM; in experiment [4], 1.39 to 5.57 µM; in experiment [5], less than 1.39 µM. Further, the IC50 in experiment [6] is greater than 5.57 µM.

With `O=C(O)C[C@@H]1CC[C@H](NC(=O)c2ccc(Cn3cnnn3)cc2)B(O)O1` [Compound 56, 2-((3R,6S)-3-(4-((1H-tetrazol-1-yl)methyl)benzamido)-2-hydroxy-1,2-oxaborinan-6-yl)acetic acid], the IC50 in experiment [1] was greater than 5.57 µM; in experiment [2], less than 1.39 µM; in experiment [3] (setting [7]), less than 1.39 µM; in experiment [3] (setting [8]), less than 1.39 µM; in experiment [4], 1.39 to 5.57 µM; in experiment [5], less than 1.39 µM. Moreover, the IC50 in experiment [6] is 1.39 to 5.57 µM.

In the case of `O=C(O)C[C@@H]1CC[C@H](NC(=O)Cc2ccccn2)B(O)O1` [Compound 57, 2-((3R,6S)-2-hydroxy-3-(2-(pyridin-2-yl)acetamido)-1,2-oxaborinan-6-yl)acetic acid], the IC50 in experiment [1] is greater than 6.85 µM; in experiment [2], less than 1.71 µM; in experiment [3] (setting [7]), less than 1.71 µM; in experiment [3] (setting [8]), less than 1.71 µM; in experiment [4], greater than 6.85 µM; in experiment [5], less than 1.71 µM. Moreover, the IC50 in experiment [6] was greater than 6.85 µM.

With `O=C(O)C[C@@H]1CC[C@H](NC(=O)c2cn(C3CC3)c3cc(N4CCNCC4)c(F)cc3c2=O)B(O)O1` [Compound 58, 2-((3R,6S)-3-(1-cyclopropyl-6-fluoro-4-oxo-7-(piperazin-1-yl)-1,4-dihydroquinoline-3-carboxamido)-2-hydroxy-1,2-oxaborinan-6-yl)acetic acid], the IC50 was greater than 4.11 µM in experiment [1]; 1.03 to 4.11 µM in experiment [2]; less than 1.03 µM in experiment [3] (setting [7]); less than 1.03 µM in experiment [3] (setting [8]); greater than 4.11 µM in experiment [4]; less than 1.03 µM in experiment [5]. In experiment [6], the IC50 is greater than 4.11 µM.
